Values of other authors in patent US10285382B2 (priority 2017, dated 2019).
Read-outs that look alike come from different tables or passages of the source.

Assays:
Settings in all cases: cited from earlier work
Salmonella = system: Salmonella
broiler eggs = system: broiler eggs
shell surface bacteria = system: shell surface bacteria
[1] = dipping eggs in 6% H2O2 solution twice, Padron (1995)

OO [H2O2, hydrogen peroxide]
treated eggs remaining contaminated (Salmonella; […] solution applied with a vacuum and a surfactant, Cox et al.): 30% | reduction of the number of Salmonella in eggshell membranes (Salmonella; [1]): 95% | reduction of the numbers of positive eggs (Salmonella; [1]): 55% | effect on hatchability (broiler eggs; broiler eggs, […] fogged, Bailey et al. (1996)): did not significantly reduce, or improve | effect on hatchability (broiler eggs; in vivo): no adverse effect | log reduction in bacterial counts (cfu/egg) (shell surface bacteria; 3% solution combined with ultraviolet light, Wells et al. (2010)): ≤ 3 log | H2O2 concentration required to disinfect shell surfaces (shell surface bacteria; Sheldon and Brake (1991)): 5 % (vol/vol)
